Entries after “also recorded” stand apart in the source; their conditions may differ.
System: cultured cortical neurons
Assay: Mitochondrial membrane potential (TMRM) in cultured neurons
Format: cell-based, mice
Settings: for TMRM-positive neurons after H2O2: H2O2 one hour, FACS
Experimental: FIGS. 5. […] (A) Western blot of cultured cortical neuron derived from nonTg and CypD-deficient mice was performed by specific α-CypD IgG. […] (F-G) FACS analysis of TMRM staining in nonTg and CypD−/− neurons treated with increasing concentrations of H2O2 for one hour. (G) Analyses of % TMRM positive neurons combined 3-4 independent experiments. […] (H-I) TMRM staining in H2O2-treated nonTg and CypD−/− neurons as shown by confocal microscopy in live cells. (J-L). FACS analysis of propidium iodide (PI) staining in nonTg and CypD−/−neurons treated with H2O2 for one hour. Percentages of PI-positive and -negative cells were shown as red line and black line, respectively.
Mitochondrial membrane potential […] was determined in primary cultured neuron derived from nonTg and Tg CypD−/− mice.
Murine cortical neurons were cultured as described. Briefly, murine cortex were dissected from Day 1 pups of nonTg and Tg CypD−/− mice, dissociated with 0.05% trypsin, and triturated in ice-cold Neurobasal A medium. Cells were then centrifuged at 200 g for 5 min to get rid of the debris. The resulting pellets were resuspended in culture medium (neurobasal A with 2% B27 supplement, 0.5 mM L-glutamine, 50 U/ml penicillin, and 50 μg/ml streptomycin) and plated onto poly-L-lysine-coated culture plates with an appropriate density. Aβ or H2O2 was added to the cultured medium at day 5 cultured neurons.
Primary cultured neurons derived from nonTg and CypD-deficient mice were incubated with 2 μM oligomeric Aβ, or H2O2 for various time points. The mitochondrial ROS was detected with 1 μM MitoSox staining The cytochrome c release was assessed by ELISA (Active Motif). Mitochondrial membrane potential was determined by TMRM labeling and analyzed by flow cytometry as described above. Apoptosis was assessed by TUNEL assay using in situ cell death detection kit (Roche).

Compound | mitochondrial membrane potential ΔΨm (TMRM) (FCCP (1 μM), nonTg and CypD−/− neurons) | TMRM-positive neurons after H2O2 (CypD−/− neurons, from 73% before) | TMRM-positive neurons after H2O2 (nonTg neurons, from 73.8% before)
N#CC(C#N)=NNc1ccc(OC(F)(F)F)cc1 [FCCP, carbonyl cyanide p-(trifluoromethoxy) phenylhydrazone] | able to dissipate mitochondria ΔΨ; also recorded: dissipated membrane ΔΨm | – | –
OO [H2O2] | – | 32% | 5.5%
